Source: PubChem BioAssay (NCI)
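Protocol summary: plate cells (96-well), add compound at 5 concentrations, incubate 48 h, interpolate endpoints linearly. Here, GI50 denotes the concentration required for 50% inhibition of growth. At the TGI there is no net growth.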

Tests used:
Assay in all cases: inhibition of tumour cell growth, NCI panel, 48 h
786-0 renal = test system: 786-0 renal
HCT-15 colon = test system: HCT-15 colon
M14 melanoma = test system: M14 melanoma
MALME-3M melanoma = test system: MALME-3M melanoma
NCI-H23 lung = test system: NCI-H23 lung
SK-MEL-28 melanoma = test system: SK-MEL-28 melanoma
SNB-75 CNS = test system: SNB-75 CNS
UACC-257 melanoma = test system: UACC-257 melanoma
BT-549 breast = test system: BT-549 breast
HL-60(TB) leukemia = test system: HL-60(TB) leukemia

SMILES | TGI (786-0 renal) | TGI (HCT-15 colon) | TGI (M14 melanoma) | TGI (MALME-3M melanoma) | TGI (NCI-H23 lung) | TGI (SK-MEL-28 melanoma) | TGI (SNB-75 CNS) | TGI (UACC-257 melanoma) | GI50 (786-0 renal) | GI50 (BT-549 breast) | TGI (BT-549 breast) | GI50 (HCT-15 colon) | GI50 (HL-60(TB) leukemia) | TGI (HL-60(TB) leukemia) | GI50 (M14 melanoma) | GI50 (NCI-H23 lung) | GI50 (SK-MEL-28 melanoma) | GI50 (UACC-257 melanoma) | GI50 (MALME-3M melanoma) | GI50 (SNB-75 CNS)
COc1cc(OC)c2ssc3c(OC)cc(OC)c4ssc1c2-c43 | > 100 µM | > 100 µM | > 100 µM | > 100 µM | > 100 µM | > 100 µM | > 100 µM | > 100 µM |  |  |  |  |  |  |  |  |  |  |  | 
O=Cc1ccc(-c2ccc(-c3nc4ccccc4[nH]3)cc2)s1 | 62.2 µM | 53.3 µM | 43.2 µM |  | 35 µM | > 100 µM |  | > 100 µM | 19 µM | 15.6 µM | 52.4 µM | 19.1 µM | 47.1 µM | > 100 µM | 18.2 µM | 17.2 µM | 47.7 µM | 45.4 µM |  | 
CC(C)N(C(=O)C1(C)CC1)C(C)C | > 100 µM | > 100 µM | > 100 µM | > 100 µM | > 100 µM | > 100 µM | > 100 µM | > 100 µM |  |  |  |  |  | > 100 µM |  |  |  |  |  | 
COc1ccc2c(c1O)C(=O)C(CCC(=O)O)CC2 (centres undefined) | > 100 µM | > 100 µM | > 100 µM |  | > 100 µM | > 100 µM | > 100 µM | > 100 µM |  |  |  |  |  | > 100 µM |  |  |  |  |  | 
COc1cc2c(c(OC)c1O)-c1ccc(OC)c(=O)cc1[C@@H](NC(=O)C(F)(F)F)CC2 | > 100 µM | > 100 µM | > 100 µM | > 100 µM |  | > 100 µM |  | > 100 µM |  |  | > 100 µM |  |  | 2.55 µM |  |  |  |  |  | 
CCSC(SCC)c1cc2c(cc1Br)OCO2 | > 100 µM | > 100 µM | 56.2 µM |  | 88.9 µM | > 100 µM | 62.9 µM |  |  |  |  |  |  | 38 µM |  |  |  |  |  | 
COC(=O)C(Cc1cnc[nH]1)NC(=O)CNC(=O)CCCn1c(=O)c2c3ccccc3n(C)c2n2nnc(-c3ccccc3)c12 (centres undefined) | > 100 µM | > 100 µM | > 100 µM | > 100 µM | > 100 µM | > 100 µM | > 100 µM | > 100 µM | > 100 µM | > 100 µM | > 100 µM | > 100 µM |  |  | > 100 µM | > 100 µM | > 100 µM | > 100 µM | > 100 µM | > 100 µM
C=CCCOC(=O)CO[N+](=O)[O-] | > 100 µM | > 100 µM | > 100 µM | > 100 µM | > 100 µM | > 100 µM | > 100 µM | > 100 µM |  |  |  |  |  | 70.1 µM |  |  |  |  |  | 
C=CCCCn1ccc2ccccc21 | > 100 µM | > 100 µM | > 100 µM | > 100 µM | > 100 µM | > 100 µM | > 100 µM | > 100 µM |  |  |  |  |  | > 100 µM |  |  |  |  |  | 
CC(=O)[O-].CC(=O)[O-].O=C(N/N=C/c1cc(Cl)cc(Cl)c1O)c1ccncc1.[Ni+2] | > 100 µM | > 100 µM | > 100 µM | > 100 µM | > 100 µM | > 100 µM | > 100 µM | 96.6 µM |  |  |  |  |  | 45.3 µM |  |  |  |  |  | 
COc1ccc(/C=C/C(=O)C(C)(C)CN2CCCCC2)cc1 | 29.9 µM | 34.3 µM | 32.2 µM | 79.8 µM | 54.7 µM | 65.9 µM | 47.1 µM | 46.2 µM |  |  |  |  |  | 37.9 µM |  |  |  |  |  | 
Cc1c(-c2ccccc2)c(=O)oc2ccc(Cl)cc12 | > 100 µM | > 100 µM | > 100 µM | > 100 µM | > 100 µM | > 100 µM | 43.7 µM | > 100 µM |  |  |  |  |  | > 100 µM |  |  |  |  |  | 
COc1ccccc1/C=C/C(=O)c1c(O)cc2occc2c1OC | 98.4 µM | > 100 µM | > 100 µM | 80.6 µM | > 100 µM | > 100 µM | 26.3 µM | > 100 µM | 35.3 µM | 28.2 µM | > 100 µM | > 100 µM |  |  | > 100 µM | 22.4 µM | > 100 µM | > 100 µM | 18.9 µM | 7.49 µM
CCCCCCCCCCCCCCCCOCC(CN(C)CCN(C)C)OCCCCCCCCCCCCCCCC (centres undefined) | > 100 µM | > 100 µM | > 100 µM | > 100 µM | > 100 µM | > 100 µM | > 100 µM | > 100 µM |  |  |  |  |  | > 100 µM |  |  |  |  |  | 
CCN(CC)CCCC(C)Nc1cc(-c2ccc(C(F)(F)F)cc2)c(C#N)c2nc3ccccc3n12 (centres undefined) | 2.93 µM | 4.03 µM | 3.37 µM | 3.54 µM | 4.22 µM | 1.19 µM |  | 3.75 µM | 1.51 µM | 1.6 µM | 3.16 µM | 1.88 µM | 2.1 µM | 4.98 µM | 1.81 µM | 1.86 µM | 0.325 µM | 2.08 µM | 1.83 µM | 
COC(=O)NC1(NC(=O)OC)NC(=O)c2cc(OC)c(OC)cc2N1 | > 100 µM | > 100 µM | > 100 µM |  | > 100 µM | > 100 µM |  | > 100 µM |  |  |  |  |  |  |  |  |  |  |  | 
COc1cc(Br)c(CC2(C#N)c3ccccc3C3C(N2C(=O)c2ccccc2)C3(Cl)Cl)cc1OC (centres undefined) | > 65.5 µM | > 65.5 µM | > 65.5 µM | > 65.5 µM | > 65.5 µM | > 65.5 µM | > 65.5 µM | > 65.5 µM |  |  |  |  |  | 30.2 µM |  |  |  |  |  | 
CCOC(=O)Cc1nc2ccccc2s1 | 32.9 µM |  | 31 µM | 31.2 µM | 29.3 µM | 28.2 µM | 94.1 µM | 33.2 µM |  |  |  |  |  | 43.9 µM |  |  |  |  |  | 
O=C(O)C1=C(C(=O)Nc2ccccc2)C2C=CC1C2 (centres undefined) | > 100 µM | > 100 µM | > 100 µM | > 100 µM | > 100 µM | > 100 µM | > 100 µM | > 100 µM |  |  |  |  |  | > 100 µM |  |  |  |  |  | 
CCOC(=O)C(Cc1c[nH]c2ccc([N+](=O)[O-])cc12)(NC(C)=O)C(=O)OCC | > 802 µM | > 1000 µM | > 1000 µM | > 1000 µM | > 1000 µM | > 1000 µM | 215 µM | > 1000 µM | 143 µM | 44.5 µM | 426 µM | > 1000 µM |  |  | > 1000 µM | 85 µM | 975 µM | > 1000 µM | 114 µM | 59.2 µM
